The results in this text go back to ChEMBL document CHEMBL5625248, “Identification of unique indolylcyanoethylenyl sulfonylanilines as novel structural scaffolds of potential antibacterial agents” (Eur J Med Chem, 2023).

What all share (format): functional
Assay [1] concerns Escherichia coli. The assay is described as follows: Antibacterial activity against Escherichia coli ATCC 25922 assessed as inhibition of bacterial growth incubated for 18 hrs by two fold broth microdilution assay. In general terms: Broth dilution looks for growth in wells or tubes with falling amounts of substance.
Assay [2] concerns Pseudomonas aeruginosa. Nature of the assay: Antibacterial activity against Pseudomonas aeruginosa ATCC 27853 assessed as inhibition of bacterial growth incubated for 18 hrs by two fold broth microdilution assay.
For assay [3], the system named is Staphylococcus aureus. The assay is described as follows: Antibacterial activity against Staphylococcus aureus ATCC 25923 assessed as inhibition of bacterial growth incubated for 18 hrs by two fold broth microdilution assay.
Assay [4] deals with Staphylococcus aureus. The assay is described as follows: Antibacterial activity against methicilin-resistant Staphylococcus aureus N315 assessed as inhibition of bacterial growth incubated for 18 hrs by two fold broth microdilution assay.
The subject of assay [5] is Klebsiella pneumoniae. The assay is described as follows: Antibacterial activity against Klebsiella pneumoniae assessed as inhibition of bacterial growth incubated for 18 hrs by two fold broth microdilution assay.
Assay [6] relates to Acinetobacter baumannii. The assay is described as follows: Antibacterial activity against Acinetobacter baumannii assessed as inhibition of bacterial growth incubated for 18 hrs by two fold broth microdilution assay.
Assay [7] deals with Staphylococcus aureus. Nature of the assay: Antibacterial activity against Staphylococcus aureus assessed as inhibition of bacterial growth incubated for 18 hrs by two fold broth microdilution assay.
The test system of assay [8] is Escherichia coli. The assay is described as follows: Antibacterial activity against Escherichia coli assessed as inhibition of bacterial growth incubated for 18 hrs by two fold broth microdilution assay.
For assay [9], the system named is Staphylococcus aureus. The assay is described as follows: Antibacterial activity against Staphylococcus aureus ATCC 29213 assessed as inhibition of bacterial growth incubated for 18 hrs by two fold broth microdilution assay.
Assay [10] relates to Enterococcus faecalis. Nature of the assay: Antibacterial activity against Enterococcus faecalis assessed as inhibition of bacterial growth incubated for 18 hrs by two fold broth microdilution assay.
The test system of assay [11] is Pseudomonas aeruginosa. The assay is described as follows: Antibacterial activity against Pseudomonas aeruginosa assessed as inhibition of bacterial growth incubated for 18 hrs by two fold broth microdilution assay.

Values after ≈ are worked out from the molar mass of the structure shown.

Turning to `CC(=O)Nc1ccc(S(=O)(=O)/C(C#N)=C/c2cn(CCN3CCOCC3)c3ccccc23)cc1`, the MIC – broadly, the smallest concentration in the dilution series that meets the test's criterion for growth inhibition – in assay [1] is 0.5 µg/mL (≈ 1.04 µM); in assay [2] it was 8 µg/mL (≈ 16.7 µM); in [3], 32 µg/mL (≈ 66.9 µM); in [4] it was 32 µg/mL (≈ 66.9 µM); in assay [5], 256 µg/mL (≈ 535 µM); in assay [6], 32 µg/mL (≈ 66.9 µM). Also, the MIC in assay [7] came to 128 µg/mL (≈ 267 µM); in assay [8], 64 µg/mL (≈ 134 µM); in assay [9], 32 µg/mL (≈ 66.9 µM); in [10], 256 µg/mL (≈ 535 µM); in assay [11], 4 µg/mL (≈ 8.36 µM).
Turning to `CCCCCn1cc(/C=C(\C#N)S(=O)(=O)c2ccc(NC(C)=O)cc2)c2ccccc21`, the MIC in assay [1] was found to be 16 µg/mL (≈ 36.7 µM); in assay [2], 64 µg/mL (≈ 147 µM); in assay [3] it was 8 µg/mL (≈ 18.4 µM); in assay [4] it was 256 µg/mL (≈ 588 µM); in assay [5], 8 µg/mL (≈ 18.4 µM); in assay [6], 64 µg/mL (≈ 147 µM). Besides, the MIC in assay [7] is 128 µg/mL (≈ 294 µM); in [8], 64 µg/mL (≈ 147 µM); in assay [9], 16 µg/mL (≈ 36.7 µM); in assay [10] it was 256 µg/mL (≈ 588 µM); in assay [11], 64 µg/mL (≈ 147 µM).
Take `C=CCn1cc(/C=C(\C#N)S(=O)(=O)c2ccc(NC(C)=O)cc2)c2ccccc21`: the minimal inhibitory concentration (MIC) was found to be 1 µg/mL (≈ 2.47 µM) in assay [1]; 16 µg/mL (≈ 39.5 µM) in assay [2]; 4 µg/mL (≈ 9.86 µM) in assay [3]; 8 µg/mL (≈ 19.7 µM) in [4]; 8 µg/mL (≈ 19.7 µM) in assay [5]; 2 µg/mL (≈ 4.93 µM) in assay [6]. The minimum inhibitory concentration (MIC) was 256 µg/mL (≈ 631 µM) in [7]; 8 µg/mL (≈ 19.7 µM) in assay [8]; 256 µg/mL (≈ 631 µM) in assay [9]; 8 µg/mL (≈ 19.7 µM) in assay [10]; 8 µg/mL (≈ 19.7 µM) in [11].
Take `CC(=O)Nc1ccc(S(=O)(=O)/C(C#N)=C/c2cn(Cc3ccccc3Cl)c3ccccc23)cc1`: the MIC in [1] amounted to 1 µg/mL (≈ 2.04 µM); in assay [2] it was 4 µg/mL (≈ 8.16 µM); in assay [3] it was 4 µg/mL (≈ 8.16 µM); in assay [4], 16 µg/mL (≈ 32.7 µM); in assay [5], 2 µg/mL (≈ 4.08 µM); in assay [6], 8 µg/mL (≈ 16.3 µM). Besides, the MIC in [7] turned out to be 2 µg/mL (≈ 4.08 µM); in assay [8], 2 µg/mL (≈ 4.08 µM); in assay [9] it was 8 µg/mL (≈ 16.3 µM); in assay [10] it was 4 µg/mL (≈ 8.16 µM); in [11], 2 µg/mL (≈ 4.08 µM).
For the compound `CCN(CC)C(=O)Cn1cc(/C=C(\C#N)S(=O)(=O)c2ccc(NC(C)=O)cc2)c2ccccc21`, the MIC in [1] was found to be 128 µg/mL (≈ 267 µM); in assay [2], 256 µg/mL (≈ 535 µM); in assay [3], 8 µg/mL (≈ 16.7 µM); in assay [4] it was 128 µg/mL (≈ 267 µM); in assay [5], 64 µg/mL (≈ 134 µM); in assay [6], 128 µg/mL (≈ 267 µM). The MIC in assay [7] was 256 µg/mL (≈ 535 µM); in assay [8], 32 µg/mL (≈ 66.9 µM); in assay [9], 2 µg/mL (≈ 4.18 µM); in assay [10] it was 128 µg/mL (≈ 267 µM); in [11], 32 µg/mL (≈ 66.9 µM).
Consider `N#C/C(=C\c1cn(CC2CC2)c2ccccc12)S(=O)(=O)c1ccc(N)cc1`, for which the MIC was found to be 16 µg/mL (≈ 42.4 µM) in [1]; 16 µg/mL (≈ 42.4 µM) in assay [2]; 64 µg/mL (≈ 170 µM) in [3]; 128 µg/mL (≈ 339 µM) in [4]; 16 µg/mL (≈ 42.4 µM) in [5]; 64 µg/mL (≈ 170 µM) in [6]. Further, the MIC came out at 32 µg/mL (≈ 84.8 µM) in assay [7]; 256 µg/mL (≈ 678 µM) in assay [8]; 32 µg/mL (≈ 84.8 µM) in [9]; 128 µg/mL (≈ 339 µM) in assay [10]; 64 µg/mL (≈ 170 µM) in assay [11].
For the compound `CN(C)CCn1cc(/C=C(\C#N)S(=O)(=O)c2ccc(N)cc2)c2ccccc21`, the MIC in assay [1] amounted to 256 µg/mL (≈ 649 µM); in assay [2], 32 µg/mL (≈ 81.1 µM); in assay [3], 2 µg/mL (≈ 5.07 µM); in assay [4] it was 128 µg/mL (≈ 324 µM); in assay [5], 128 µg/mL (≈ 324 µM); in assay [6], 16 µg/mL (≈ 40.6 µM). For the same compound, the MIC in assay [7] was found to be 2 µg/mL (≈ 5.07 µM); in assay [8], 128 µg/mL (≈ 324 µM); in assay [9], 8 µg/mL (≈ 20.3 µM); in assay [10], 64 µg/mL (≈ 162 µM); in assay [11] it was 64 µg/mL (≈ 162 µM).
With `CC(=O)Nc1ccc(S(=O)(=O)/C(C#N)=C/c2cn(Cc3cccc(F)c3)c3ccccc23)cc1`, the MIC in assay [1] was 64 µg/mL (≈ 135 µM); in assay [2] it was 16 µg/mL (≈ 33.8 µM); in [3] it was 16 µg/mL (≈ 33.8 µM); in assay [4], 256 µg/mL (≈ 541 µM); in [5], 256 µg/mL (≈ 541 µM); in [6] it was 16 µg/mL (≈ 33.8 µM). Further, the MIC in assay [7] turned out to be 64 µg/mL (≈ 135 µM); in assay [8] it was 128 µg/mL (≈ 270 µM); in [9], 16 µg/mL (≈ 33.8 µM); in assay [10], 32 µg/mL (≈ 67.6 µM); in [11] it was 64 µg/mL (≈ 135 µM).
For `CC(=O)Nc1ccc(S(=O)(=O)/C(C#N)=C/c2c[nH]c3cc(F)ccc23)cc1`, the MIC was 8 µg/mL (≈ 20.9 µM) in assay [1]; 8 µg/mL (≈ 20.9 µM) in assay [2]; 128 µg/mL (≈ 334 µM) in assay [3]; 64 µg/mL (≈ 167 µM) in [4]; 128 µg/mL (≈ 334 µM) in [5]; 16 µg/mL (≈ 41.7 µM) in assay [6]. The MIC in [7] worked out at 32 µg/mL (≈ 83.5 µM); in assay [8], 128 µg/mL (≈ 334 µM); in assay [9], 32 µg/mL (≈ 83.5 µM); in assay [10], 32 µg/mL (≈ 83.5 µM); in [11], 64 µg/mL (≈ 167 µM).
